Consider eight molecules from PubChem BioAssay (NCI).

Several values for one entry are separate records, joined by “and”; a condition that tells them apart may be missing. Identical values can stand only once.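 In this assay, cells in 96-well plates receive the compound at five concentrations for 48 hours. Endpoints are linearly interpolated between the surrounding concentrations. At the GI50, growth is halved. TGI marks complete inhibition of growth.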

Test systems include BT-549 breast; LOX IMVI melanoma; OVCAR-4 ovarian; HS 578T breast; K-562 leukemia; MOLT-4 leukemia; HCT-116 colon; NCI-H522 lung; KM12 colon; SF-295 CNS.
What all share (experiment): inhibition of tumour cell growth, NCI panel, 48 h

Consider `CN1CCN(CCCn2c3c(sc4ncccc43)c(=O)n3nnc(-c4ccccc4)c23)CC1`, for which the GI50 with BT-549 breast is 14.7 µM; in the assay with LOX IMVI melanoma, 1.39 µM; with OVCAR-4 ovarian, 1.87 µM; with HS 578T breast it was 4.82 µM; with K-562 leukemia it was 0.593 µM; in the assay with MOLT-4 leukemia it was 0.889 µM. Further, the GI50 was 1.72 µM in the assay with HCT-116 colon, 1.6 µM in the assay with NCI-H522 lung, 1.55 µM in the assay with KM12 colon and 1.73 µM with SF-295 CNS. Moreover, the TGI turned out to be 30.6 µM in the assay with BT-549 breast; 2.75 µM with LOX IMVI melanoma; 3.73 µM with OVCAR-4 ovarian; 12.3 µM in the assay with HS 578T breast; 1.56 µM in the assay on K-562 leukemia; 2.86 µM in the assay with MOLT-4 leukemia. Besides, the TGI was determined as 3.31 µM in the assay with HCT-116 colon, 3.3 µM in the assay with NCI-H522 lung, 3.17 µM in the assay on KM12 colon and 3.36 µM in the assay on SF-295 CNS.
In the case of `OCC1OC(n2cnc3cc(Cl)c(Cl)cc32)C(O)C1O` (configuration not stated), the GI50 in the assay on BT-549 breast was 23 µM; with LOX IMVI melanoma, 12.1 µM; in the assay on OVCAR-4 ovarian, 62.8 µM; with HS 578T breast, 27 µM; with K-562 leukemia, 44.8 µM; with MOLT-4 leukemia it was 3.85 µM. Further, the GI50 in the assay on HCT-116 colon was 18 µM; in the assay on NCI-H522 lung it was 16.3 µM; with KM12 colon, 28.3 µM; with SF-295 CNS, 24.6 µM. Further, the TGI in the assay on BT-549 breast is 58.4 µM; in the assay with LOX IMVI melanoma it was 29 µM; in the assay on OVCAR-4 ovarian, over 100 µM; in the assay with HS 578T breast, over 96.3 µM; with K-562 leukemia, over 100 µM; in the assay on MOLT-4 leukemia, over 41.3 µM. Moreover, the TGI is 44.2 µM with HCT-116 colon, 54.4 µM in the assay on NCI-H522 lung, over 100 µM in the assay on KM12 colon and 85.2 µM in the assay on SF-295 CNS.
Turning to `CCN1C(=O)N(CC)C2C1NN=c1s/c(=C\c3ccc(Br)cc3)c(=O)n12` (configuration not stated), the GI50 in the assay on BT-549 breast was 0.196 µM; with LOX IMVI melanoma it was 0.185 µM; in the assay with OVCAR-4 ovarian it was 0.388 µM; in the assay with HS 578T breast, 0.194 µM; in the assay with K-562 leukemia, 0.0453 µM; in the assay on MOLT-4 leukemia, 0.392 µM. The GI50 in the assay with HCT-116 colon is 0.107 µM; in the assay with NCI-H522 lung it was 0.0558 µM; with KM12 colon, 0.0604 µM; in the assay on SF-295 CNS it was 0.0738 µM. Also, the TGI is 16.4 µM with BT-549 breast; over 100 µM in the assay with LOX IMVI melanoma; over 100 µM in the assay on OVCAR-4 ovarian; over 100 µM with HS 578T breast; over 100 µM in the assay with K-562 leukemia; over 100 µM with MOLT-4 leukemia. Further, the TGI in the assay with HCT-116 colon, with KM12 colon and in the assay on SF-295 CNS was over 100 µM in each case.
`COc1cccc(/C=C/C(=O)c2cc3c(N)c(C(=O)Nc4ccccc4)sc3nc2C)c1`: the GI50 in the assay on BT-549 breast was 1.19 µM; in the assay with LOX IMVI melanoma, 0.887 µM; in the assay on OVCAR-4 ovarian it was 1.78 µM; in the assay on HS 578T breast, 1.92 µM; with K-562 leukemia it was 1.47 µM; in the assay on MOLT-4 leukemia, 1.59 µM. Moreover, the GI50 in the assay on HCT-116 colon was 0.838 µM; in the assay with NCI-H522 lung it was 1.06 µM; in the assay with KM12 colon, 0.988 µM; with SF-295 CNS, 6.27 µM. Moreover, the TGI with BT-549 breast was 4.06 µM; with LOX IMVI melanoma, 1.64 µM; in the assay with OVCAR-4 ovarian, over 50 µM; in the assay on HS 578T breast, over 50 µM; with K-562 leukemia it was over 50 µM; in the assay on MOLT-4 leukemia, over 50 µM. The TGI in the assay on HCT-116 colon is 1.58 µM; in the assay with NCI-H522 lung, 3.08 µM; with KM12 colon, 2.23 µM; with SF-295 CNS it was over 50 µM.
As to `C=C1[C@H](O)C[C@@H](C(C)C(O)CC=C(C)C)[C@@H](O)[C@@H]2C(C)=CC[C@@H]12` (some centres not stated), the GI50 in the assay on BT-549 breast was over 100 µM; with LOX IMVI melanoma it was over 100 µM; in the assay with OVCAR-4 ovarian it was over 100 µM; in the assay on HS 578T breast, over 100 µM; in the assay on K-562 leukemia it was 53 µM; in the assay with MOLT-4 leukemia, 35.1 µM. The GI50 was over 100 µM with HCT-116 colon, 30.3 µM in the assay on NCI-H522 lung, over 100 µM in the assay on KM12 colon and over 100 µM in the assay on SF-295 CNS. Also, the TGI in the assay on BT-549 breast, in the assay with LOX IMVI melanoma, with OVCAR-4 ovarian, in the assay with HS 578T breast, in the assay on K-562 leukemia and in the assay with MOLT-4 leukemia was over 100 µM each time. For the same molecule, the TGI in the assay on HCT-116 colon is over 100 µM; with NCI-H522 lung, 86.4 µM; in the assay on KM12 colon, over 100 µM; with SF-295 CNS, over 100 µM.
Take `OC(CBr)C(O)C(O)C(O)CBr` (configuration not stated): the TGI with BT-549 breast is over 77 µM; with LOX IMVI melanoma, over 100 µM; in the assay with OVCAR-4 ovarian, over 100 µM; with HS 578T breast, over 100 µM; in the assay with K-562 leukemia it was over 100 µM; with MOLT-4 leukemia, over 30.4 µM. Also, the TGI in the assay with HCT-116 colon, in the assay with NCI-H522 lung, in the assay on KM12 colon and with SF-295 CNS was over 100 µM throughout. Besides, the GI50 in the assay with MOLT-4 leukemia was 10.8 µM; with HCT-116 colon, 37.3 µM and > 100 µM; in the assay with SF-295 CNS, 23.2 µM and > 72.9 µM.
For `Oc1ccc(Cl)cc1N=Nc1c(O)ccc2ccccc12`, the TGI with BT-549 breast, with LOX IMVI melanoma, with OVCAR-4 ovarian, in the assay with HS 578T breast, with K-562 leukemia and in the assay with MOLT-4 leukemia was over 100 µM in each case. Further, the TGI with HCT-116 colon, with NCI-H522 lung, in the assay with KM12 colon and in the assay on SF-295 CNS was over 100 µM in each case.
Turning to `COc1cc(/C=C/[N+](=O)[O-])cc(OC)c1`, the GI50 with BT-549 breast is 1.85 µM; with LOX IMVI melanoma, 1.42 µM; in the assay on OVCAR-4 ovarian, 4.87 µM; in the assay with HS 578T breast, 4.11 µM; with K-562 leukemia it was 1.75 µM; with MOLT-4 leukemia it was 2.25 µM. For the same molecule, the GI50 in the assay with HCT-116 colon is 1.84 µM; in the assay with NCI-H522 lung it was 1.39 µM; with KM12 colon it was 3.08 µM; in the assay on SF-295 CNS, 2.54 µM. Moreover, the TGI is 3.65 µM in the assay on BT-549 breast; 2.75 µM in the assay on LOX IMVI melanoma; 17.3 µM with OVCAR-4 ovarian; 23.3 µM in the assay on HS 578T breast; 9.09 µM with K-562 leukemia; 6.33 µM in the assay on MOLT-4 leukemia. Moreover, the TGI in the assay with HCT-116 colon was 3.64 µM; with NCI-H522 lung, 3.14 µM; with KM12 colon, 10.5 µM; in the assay on SF-295 CNS it was 7.29 µM.
